Measurements reported in PMC9511777, “Novel lipid-coated mesoporous silica nanoparticles loaded with thymoquinone formulation to increase its bioavailability in the brain and organs of Wistar rats” (BMC Pharmacology & Toxicology, 2022).
Where two headings read alike, the source gives them in different places.

Legend:
Nitric oxide (NO) levels = Nitric oxide (NO) levels in tissues (Griess reaction); assay type: in vivo, Wistar rats; conditions: all the tested organs; oral 60 mg/kg, 14 days
Procedure: (§1) The four groups received oral dose day by day for 14 days as follows: The first group: the negative control group, received 1:9; DMSO: Saline. The second group: the free TQ group, received a 60 mg/kg free TQ (3). The third group: The MSNs group received a 60 mg/kg MSNs dose. The fourth group: the LB-MSNs group, received a dose of 60 mg/kg MSNs loaded with TQ and coated with lipids. On day 14, rats were decapitated, and rat brains, liver, and kidneys were dissected for histopathological examination and oxidative stress measurements. The duration time of our experiment and the TQ doses were determined following Sheikhbahaei et al. (2016). 's work.
(§2) On the 14th day of the experiment, all the experimental groups were sacrificed by decapitation. […]
The nitric oxide assay was performed according to the Griess reaction method using biodiagnostic kit No. 25 33, Egypt. […] Absorption was measured using a spectrophotometer at […] (Jenway UV-6420; Barloworld Scientific, Essex, UK). NO levels were quantified as nitrite using the Griess reagent, according to Moshage et al..
(§3) We used The Statistical Package for Social Sciences (SPSS) software (version 19) to analyze the data. The mean and standard error of the results were calculated. […] The percentage difference, which reflects the percent change in value compared to the control, was also assessed. %Difference%D=treatedvalue-controlvalue/controlvalue×100%

NO and MDA metabolites = test system: NO and MDA metabolites; set-up: method as in PMID 22309035; conditions: rat brain; 2, 5, or 10 mg/kg doses; cited from earlier work
[1] = Distribution of TQ in brain areas, liver and kidney (HPLC); assay type: in vivo, Wistar rats; conditions: male, Wistar, rat, oral, 60 mg/kg TQ, read-out: TQ distribution, Mean ± SEM
Procedure: Twenty-eight male Wistar rats with an average weight of 110±10 gm were allocated into four random groups (seven rats/group). Animals were kept in fixed housing circumstances (12 h light/dark cycles) and temperature (25 °C) for three days to acclimatize. The Institutional Animal Ethics Committee approved the protocol for the in vivo study (CU-I-F-28-21).
as §1
(§4) On the 14th day of the experiment, all the experimental groups were sacrificed by decapitation. The brains of each animal were taken away after they were removed and put in an ice-cold Petri dish. The brain was sectioned into different regions (hippocampus, cortex, hypothalamus, thalamus, medulla, midbrain, cerebellum, and striatum). Each brain region was weighed and frozen until used in further measurements. Heidolph DIAX 900 was used to homogenize the brain sections weighed in 4 ml of ice-cold PBS (50 mM, pH 7.4). Then, for 15 minutes, the homogenates were separated using a high-speed cooling centrifuge. The centrifuge was set to 8000 RPM and 4°C (VS-18000 M small size, high speed, refrigerated centrifuge, Korea). The pure supernatant was collected and stored at -20°C for further analysis.
TQ was chromatographically identified at room temperature 25 °C. The mobile phase was 50: 30: **20 v/v/v methanol, acetonitrile, and potassium dihydrogen phosphate buffer (20 mM, pH 4.5), isocratically injected at a flow rate of 1 ml/min using the HPLC apparatus's C18 column (25 cm4.6 mm) (YL 9100 HPLC, USA).

[2] = test system: Lipid peroxidation (MDA) levels; assay: Lipid peroxidation (MDA) levels in tissues; assay type: in vivo, Wistar rats; conditions: oral 60 mg/kg, 14 days
Procedure: as §1, §4
MDA was determined as a marker of lipid peroxidation using a method developed by Begona Ruiz-Larrea et al., which entailed detecting the thiobarbituric acid-reactive molecules. […] A spectrophotometer was used to measure the absorbance of the generated compound at 532 nm (Jenway UV-6420; Barloworld Scientific, Essex, UK).
as §3

Wistar rats = assay: Histopathological examination of the kidney, liver, and different brain areas (H & E); assay type: in vivo; conditions: H & E x400, oral 60 mg/kg, 14 days
Procedure: as §1
Each group's brain, liver, and kidney were fixed in a formalin buffered solution (10%) for twenty-four hours. Fixed specimens were rinsed with tap water before dehydrating with methyl, ethyl, and absolute dilutions. Specimens were cleaned in xylene and embedded in paraffin wax for 24 hours in a 56°C hot air oven. Microtome blocks of Paraffin bees wax tissue were sectioned at 8 microns on a slide, collected on glass slides, and removed paraffin stained with hematoxylin and eosin (H & E) stains. A light microscope was used to examine the slides (Zeiss, Germany).

[3] = test system: Reduced glutathione (GSH) levels; assay: Reduced glutathione (GSH) levels in tissues (Ellman's method); assay type: in vivo, Wistar rats; conditions: oral 60 mg/kg, 14 days
Procedure: as §1, §2
According to Ellman's method, the determination of Reduced Glutathione concentration (GSH) required using Biodiagnostic kit No. GR 25 11, Egypt. Ellman's method measured reduced glutathione levels, as the sulfhydryl group of […] lowers Ellman's reagent and produces 2-Nitro-smercaptobenzoic acid. The yellow-colored nitro-mercaptobenzoic acid was detected at 412 nm using a spectrophotometer (Jenway UV-6420; Barloworld Scientific, Essex, UK).
We used The Statistical Package for Social Sciences (SPSS) software (version 19) to analyze the data. The mean and standard error of the results were calculated. […]

Catalase activity = Catalase activity in tissues (Aebi's protocol); assay type: in vivo, Wistar rats; conditions: oral 60 mg/kg, 14 days
Procedure: as §1, §2
The catalase activity was determined according to Aebi’s protocol (spectrophotometry) using Biodiagnostic Kit No. CA 25 1, Egypt. […] The chromophore's absorbance at 510 nm is measured using a spectrophotometer (Jenway UV-6420; Barloworld Scientific, Essex, UK).
as §3

- concentration at 14 days ([1]; Cerebellum): 48 ± 18 ng/g
- concentration at 14 days ([1]; Cortex): 25 ± 4 ng/g
- concentration at 14 days ([1]; Hippocampus): 2 ± 0.3 ng/g
- concentration at 14 days ([1]; Hypothalamus): 10 ± 0.3 ng/g
- concentration at 14 days ([1]; Kidney): 112 ± 19 ng/g
- concentration at 14 days ([1]; Liver): 201 ± 24 ng/g
- concentration at 14 days ([1]; Medulla): 6 ± 1 ng/g
- concentration at 14 days ([1]; Midbrain): 7 ± 1 ng/g
- concentration at 14 days ([1]; Striatum): 13 ± 1 ng/g
- concentration at 14 days ([1]; Thalamus): 4 ± 1 ng/g
- renal histopathological alterations (Wistar rats): mild histopathological alterations
- catalase activity change compared with negative control group (Catalase activity; all investigated areas except cerebellum, brain, kidney, hippocampus): no significant differences
SMILES: CC1=CC(=O)C(C(C)C)=CC1=O [TQ, 2-isopropyl-5-methyl-1,4-benzoquinone]
- NO level change compared with negative control group (Nitric oxide (NO) levels): nonsignificant changes
- NO and MDA metabolites in the hippocampus (NO and MDA metabolites): decreased
- MDA concentration change compared with control ([2]; all tested areas except the medulla): nonsignificant changes
- MDA level, significant increase compared with control ([2]; liver): 67.01%
- MDA level, significant decrease compared with control ([2]; medulla): 60.95%
- GSH level change compared with negative control group ([3]; all investigated areas except the cerebellum): no significant changes
- GSH level, significant increase compared with control ([3]; cerebellum): 181.98%
- catalase activity, significant difference compared with negative control (direction not given) (Catalase activity; cerebellum): 55.4%
